Assay results reported in patent US20200390767A1, “Formulations of 4-(7-Hydroxy-2-isopropyl-4-oxo-4H-quinazolin-3-yl)-benzonitrile” (NOVARTIS AG, priority 2019, published 2020).

Tested on: corneal sensitivity
Experiment: First in human study, esthesiometry assessment (Part 3)
Type: in vivo
Conditions: single eye drop; for anesthetic effect on the cornea: healthy subjects
Description: Part 3 was an esthesiometry assessment to evaluate the anesthetic properties of compound I. Part 3 of the study had four arms, with compound I, vehicle, tetracaine (0.5% ophthalmic solution, used as a positive control) and diclofenac sodium (0.1% ophthalmic solution, used as the active NSAID comparator). Ocular anesthetic was selected because of its established anesthetic effect; however it is not the standard of care due to its negative effect on wound healing. NSAID is the current standard of care for corneal pain after PRK with minimal anesthetic but significant pain control properties. Vehicle eye drops were used as a negative control to enable better determination of the potential anesthetic effect. Twelve healthy subjects, who met the eligibility criteria, were randomized to receive a single eye drop of 4 study treatments, each during 1 of 4 different study days (Days 1, 4, 7 and 10). Each subject was randomized to receive the study treatment according to one of the following four sequences: • Sequence 1: Anesthetic, NSAID, compound I 2.5%, Vehicle • Sequence 2: NSAID, Vehicle, Anesthetic, compound I 2.5% • Sequence 3: Vehicle, compound I 2.5%, NSAID, Anesthetic • Sequence 4: compound I 2.5%, Anesthetic, Vehicle, NSAID
The first-in-human study further evaluated potential anesthetic effect of topical ocular 2.5% compound I by esthesiometry testing, i.e. measurement of the filament length (cm) when the threshold of cornea touch is perceived.

Row | SMILES | anesthetic effect on the cornea | duration of action of anesthetic effect
1 | O=C(O)Cc1ccccc1Nc1c(Cl)cccc1Cl [diclofenac 0.1%, diclofenac sodium] | no anesthetic effect | –
2 | CCCCNc1ccc(C(=O)OCCN(C)C)cc1 [tetracaine 0.5%, tetracaine] | had an anesthetic effect | approximately 10 minutes
